The values that follow come from ChEMBL document CHEMBL1201862, “PubChem BioAssay data set” (2004).

Holding throughout (experiment): inhibition of tumour cell growth, NCI panel, 48 h
Test [1] concerns DLD-1.
The subject of test [2] is DMS-114.
The test system of test [3] is HCT-116.
The subject of test [4] is HCT-15.
For test [5], the system named is HOP-92.
The test system of test [6] is HT-29.
For test [7], the system named is KM-20L2.
The test system of test [8] is LOX IMVI.
In test [9] the test system is M14.
Test [10] concerns M19-MEL.
The subject of test [11] is OVCAR-5.
Test [12] relates to SK-MEL-28.
In test [13] the test system is SK-MEL-5.
Test [14] has as its system SK-OV-3.
The subject of test [15] is U-251.
For test [16], the system named is UACC-257.
The subject of test [17] is A498.
Test [18] has as its system SNB-78.
The test system of test [19] is MCF7.
Test [20] deals with PC-3.

Structures are written as SMILES. Where “and” joins values, the source holds several entries; their conditions need not be identical. Equal values may be shown once.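 Test compounds were applied to cells in 96-well plates for 48 hours at 5 doses. GI50 marks 50% less growth.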 Calls of active or inactive are those of the source. No stated cut-off is given here; in the data, active = GI50 up to about 1.1 µM and inactive = higher.

For the compound `CC(C)C(NCc1c2ccccc2nc2ccccc12)C(=O)O` (stereo not drawn), the GI50 in test [1] was 23.8 µM (inactive); in test [2] it was 27.2 µM (inactive); in test [3] it was 26.4 µM (inactive); in test [4], 35.7 µM; in test [5], 12.4 µM (inactive); in [6] it was 30.7 µM (inactive). In addition, the GI50 in [7] is 58.2 µM (inactive); in test [8], 30.5 µM (inactive); in [9] it was 62.4 µM (inactive); in test [10] it was 33 µM (inactive); in test [11], > 100 µM (inactive); in test [12], 87.5 µM (inactive). Further, the GI50 in test [13] was 64.4 µM (inactive); in [14] it was > 100 µM (inactive); in [15], 91.8 µM (inactive); in [16], 54.5 µM (inactive).
With `Nc1cc(C(=O)NC2C3CC4CC(C3)CC2C4)nc(S)n1` (stereo not drawn), the GI50 is > 100 µM (inactive) in test [17]; > 100 µM (inactive) in test [1]; > 100 µM (inactive) in [3]; > 100 µM in [4]; > 100 µM (inactive) in [5]; > 100 µM (inactive) in test [6]. The GI50 in [7], in [9], in test [10], in test [12], in test [13] and in [14] was > 100 µM (inactive) each time. The GI50 in [18], in test [15] and in test [16] was > 100 µM (inactive) each time.
Turning to `COc1ccc(/C=C/C(=O)c2c(-c3ccccc3)nn(C)c(=O)c2N2CCOCC2)cc1`, the GI50 is > 100 µM (inactive) in test [17]; > 100 µM (inactive) in test [1]; > 100 µM (inactive) in test [2]; 54.2 µM (inactive) in test [3]; 65.9 µM in [4]; 6.92 µM (inactive) in test [5]. The GI50 in [6] was > 100 µM (inactive); in test [7], 60.3 µM (inactive); in [8] it was 68.1 µM (inactive); in test [9] it was > 100 µM (inactive); in test [10], > 100 µM (inactive); in [12] it was > 100 µM (inactive). Besides, the results for the GI50 in test [13], in test [14] and in [15] were 97.9 µM (inactive), > 100 µM (inactive) and > 100 µM (inactive), respectively.
For the compound `OCC1C(/C=C/c2ccoc2)ON2CCCC12` (stereo not drawn), the GI50 in test [1], in test [6], in [7], in test [8], in [9] and in test [10] was > 100 µM (inactive) in each case. The GI50 in test [11], in test [12], in test [18], in test [15] and in [16] was > 100 µM (inactive) throughout.
In the case of `Cc1ccc(S(=O)(=O)ON=C2CC(c3ccccc3)N(C)C(c3ccccc3)C2)cc1` (stereo not drawn), the GI50 in test [17] was 24.3 µM (inactive); in [2] it was 14.7 µM (inactive); in [3], 15.9 µM (inactive) and 14.2 µM (inactive); in test [4] it was 16.7 µM and 18.5 µM; in test [5] it was 15.9 µM (inactive) and 15.3 µM (inactive); in test [6], 20 µM (inactive) and 20.9 µM (inactive). The GI50 in test [7] was 23 µM (inactive) and 18.4 µM (inactive); in [8], 13.5 µM (inactive) and 14 µM (inactive); in test [9] it was 19.4 µM (inactive) and 17.2 µM (inactive); in test [10], 20.8 µM (inactive) and 21.7 µM (inactive); in [11], 20.8 µM (inactive); in [12] it was 23.8 µM (inactive) and 22.9 µM (inactive). Besides, the GI50 in test [13] is 17.4 µM (inactive) and 16.3 µM (inactive); in [14] it was 22.5 µM (inactive) and 21.8 µM (inactive); in [18] it was 19.1 µM (inactive) and 23.1 µM (inactive); in [15] it was 23.3 µM (inactive) and 21.1 µM (inactive); in test [16] it was 18.9 µM (inactive) and 19.3 µM (inactive).
On to `Nc1c(-c2ccc(Br)cc2)[n+]([O-])c2ccccc2[n+]1[O-]`, for which the GI50 in test [17] was > 100 µM (inactive); in [1] it was > 100 µM (inactive); in test [2], 50.9 µM (inactive); in [3], > 100 µM (inactive); in [4], > 100 µM; in test [5], > 100 µM (inactive). The GI50 in [6], in test [7], in [9], in test [11], in [12] and in [13] was > 100 µM (inactive) each time. In addition, the GI50 is > 100 µM (inactive) in [14], > 100 µM (inactive) in test [18], 78.2 µM (inactive) in test [15] and > 100 µM (inactive) in test [16].
`O=C(c1no[n+]([O-])c1C(=O)c1csc2ccccc12)c1csc2ccccc12`: the GI50 in [17] was 15 µM (inactive); in [3], 8.85 µM (inactive); in test [4], 4.57 µM; in test [5], 2.16 µM (inactive); in test [6], 3.64 µM (inactive); in [8] it was 1.25 µM (inactive). In addition, the GI50 in [9] was 9.04 µM (inactive); in [19], 4.41 µM (inactive); in test [11], 18.3 µM (inactive); in test [20] it was 3.13 µM (inactive); in test [12], 4.09 µM (inactive); in test [13], 12.8 µM (inactive). In addition, the GI50 in test [14] was 16.1 µM (inactive); in test [15] it was 9.95 µM (inactive); in test [16], 4.92 µM (inactive).
As to `Cc1c2c(n(CC(c3ccccc3)c3ccccc3)c1C)NN=C(C#N)S2(=O)=O`, the GI50 was > 100 µM (inactive) in test [17]; 74 µM (inactive) in test [3]; > 100 µM in [4]; > 100 µM (inactive) in [5]; > 100 µM (inactive) in test [6]; > 100 µM (inactive) in test [8]. Also, the GI50 in test [9], in [19], in test [11], in [20], in [12] and in [13] was > 100 µM (inactive) in each case. Also, the GI50 in [14], in test [15] and in [16] was > 100 µM (inactive) in each case.
Turning to `Cc1ccc(-c2cc(=S)n(-c3ccccc3)c3[nH]c(=S)n(-c4ccccc4)c(=N)c23)cc1`, the GI50 in [1] is > 100 µM (inactive); in test [2], > 100 µM (inactive); in test [3] it was > 100 µM (inactive); in test [4], > 100 µM; in test [5], > 100 µM (inactive); in test [6], > 100 µM (inactive). For the same compound, the GI50 in test [7], in test [9], in test [10], in test [11], in test [12] and in test [13] was > 100 µM (inactive) throughout. Besides, the GI50 in test [15] and in [16] was > 100 µM (inactive) each time.
Turning to `O=C1c2cccc3cccc(c23)C2NCCCN12` (stereo not drawn), the GI50 in test [17] is > 100 µM (inactive); in test [3], > 100 µM (inactive); in [4], > 100 µM; in [5], > 100 µM (inactive); in [6], > 100 µM (inactive); in [8], > 100 µM (inactive). Further, the GI50 in [9] was > 100 µM (inactive); in test [19], 95.3 µM (inactive); in [11], > 100 µM (inactive); in test [20], > 100 µM (inactive); in [12], > 100 µM (inactive); in test [13], 78.2 µM (inactive). Besides, the GI50 in test [14], in [15] and in test [16] was > 100 µM (inactive) in each case.
As to `CNC(=S)NNC(=O)c1c(C)nc2sccn12`, the GI50 was > 100 µM (inactive) in [1]; > 100 µM (inactive) in [3]; > 100 µM in [4]; > 100 µM (inactive) in [5]; > 100 µM (inactive) in test [6]; > 100 µM (inactive) in [7]. Besides, the GI50 in [8], in test [10], in test [11], in test [12], in [13] and in [14] was > 100 µM (inactive) in each case. The GI50 in test [15] and in test [16] was > 100 µM (inactive) in each case.
Regarding `Cc1c(C(=O)/C=C/c2ccc(N(C)C)cc2)c(=O)n(-c2ccccc2)n1C`, the GI50 in test [17] was > 100 µM (inactive); in test [2], > 100 µM (inactive); in test [3], > 100 µM (inactive); in test [4], > 100 µM; in [5], > 100 µM (inactive); in test [6] it was > 100 µM (inactive). The GI50 in test [7], in [8], in test [10], in [11], in test [12] and in [14] was > 100 µM (inactive) each time. Also, the GI50 in test [18], in test [15] and in [16] was > 100 µM (inactive) in each case.
As to `CCCC(CC)c1cc(O)c(O)cc1C(CC)CCC` (stereo not drawn), the GI50 is > 10 µM (inactive) in test [17]; > 10 µM (inactive) in test [3]; > 10 µM in test [4]; > 10 µM (inactive) in [5]; > 10 µM (inactive) in test [6]; > 10 µM (inactive) in test [8]. In addition, the GI50 in [9], in [19], in test [11], in test [20], in [12] and in test [13] was > 10 µM (inactive) throughout. For the same compound, the GI50 in [14], in test [15] and in [16] was > 10 µM (inactive) each time.
